Earlier results on two molecules are cited in patent publication US11678659B2, “Use as rodenticides of compounds that inhibit blood coagulation” (priority 2014, dated 2023).

In data set [1] the target is T1, thrombin receptor PAR-1 (Homo sapiens, UniProt P25116).
T1 construct: endogenous in cells; host or cells: study subjects (in vivo), platelets
T1 sequence (P25116 22-425): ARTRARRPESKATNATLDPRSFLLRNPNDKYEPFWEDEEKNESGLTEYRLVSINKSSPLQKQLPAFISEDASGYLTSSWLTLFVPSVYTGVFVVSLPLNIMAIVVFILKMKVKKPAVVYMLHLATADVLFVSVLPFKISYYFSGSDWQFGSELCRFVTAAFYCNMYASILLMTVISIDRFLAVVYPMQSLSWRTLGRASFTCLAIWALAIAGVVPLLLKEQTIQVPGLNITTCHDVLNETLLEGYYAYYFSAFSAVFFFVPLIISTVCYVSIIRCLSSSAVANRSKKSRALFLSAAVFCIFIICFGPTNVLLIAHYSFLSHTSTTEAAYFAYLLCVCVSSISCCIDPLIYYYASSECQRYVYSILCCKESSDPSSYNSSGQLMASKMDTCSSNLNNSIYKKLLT

Data set [2] concerns the target T2, thrombin (Homo sapiens, UniProt P00734).
T2 construct: from tissue; host or cells: blood of human subjects (in vivo)
The following applies: administration for more than 35 days.

On to `Br.CCOc1cc2c(c(F)c1OCC)C(=N)N(CC(=O)c1cc(N3CCOCC3)c(OC)c(C(C)(C)C)c1)C2` [Atopaxar, 1-(3-tert-butyl-4-methoxy-5-morpholin-4-yl-phenyl)-2-(5,6-diethoxy-4-fluoro-3-imino-1H-isoindol-2-yl)ethanone-hydrobromide], for which the bleedings observed entry in data set [1] (one study) is reported as “not statistically significant”. Moreover, the liver enzymes result in data set [1] (two phase II studies) is “increase in liver enzymes”. For `CCOC(=O)CN[C@@H](C(=O)N1CC[C@H]1C(=O)NCc1ccc(/C(N)=N\O)cc1)C1CCCCC1` [ximelagatran], the liver toxicity entry in data set [2] is “risk of liver toxicity”.
